The structures appear in SMILES notation. Where a name gives a salt, the structure may show the parent alone. Bounds are passed on as bounds.

For one assay, the target named is T1, Zcchc11 enzyme (Homo sapiens, UniProt Q5TAX3).
T1 construct: made in house; host or cells: HEK293 cells (Zcchc11); E. coli Rosetta II (LIN28A)
T1 sequence (Q5TAX3 212-1420): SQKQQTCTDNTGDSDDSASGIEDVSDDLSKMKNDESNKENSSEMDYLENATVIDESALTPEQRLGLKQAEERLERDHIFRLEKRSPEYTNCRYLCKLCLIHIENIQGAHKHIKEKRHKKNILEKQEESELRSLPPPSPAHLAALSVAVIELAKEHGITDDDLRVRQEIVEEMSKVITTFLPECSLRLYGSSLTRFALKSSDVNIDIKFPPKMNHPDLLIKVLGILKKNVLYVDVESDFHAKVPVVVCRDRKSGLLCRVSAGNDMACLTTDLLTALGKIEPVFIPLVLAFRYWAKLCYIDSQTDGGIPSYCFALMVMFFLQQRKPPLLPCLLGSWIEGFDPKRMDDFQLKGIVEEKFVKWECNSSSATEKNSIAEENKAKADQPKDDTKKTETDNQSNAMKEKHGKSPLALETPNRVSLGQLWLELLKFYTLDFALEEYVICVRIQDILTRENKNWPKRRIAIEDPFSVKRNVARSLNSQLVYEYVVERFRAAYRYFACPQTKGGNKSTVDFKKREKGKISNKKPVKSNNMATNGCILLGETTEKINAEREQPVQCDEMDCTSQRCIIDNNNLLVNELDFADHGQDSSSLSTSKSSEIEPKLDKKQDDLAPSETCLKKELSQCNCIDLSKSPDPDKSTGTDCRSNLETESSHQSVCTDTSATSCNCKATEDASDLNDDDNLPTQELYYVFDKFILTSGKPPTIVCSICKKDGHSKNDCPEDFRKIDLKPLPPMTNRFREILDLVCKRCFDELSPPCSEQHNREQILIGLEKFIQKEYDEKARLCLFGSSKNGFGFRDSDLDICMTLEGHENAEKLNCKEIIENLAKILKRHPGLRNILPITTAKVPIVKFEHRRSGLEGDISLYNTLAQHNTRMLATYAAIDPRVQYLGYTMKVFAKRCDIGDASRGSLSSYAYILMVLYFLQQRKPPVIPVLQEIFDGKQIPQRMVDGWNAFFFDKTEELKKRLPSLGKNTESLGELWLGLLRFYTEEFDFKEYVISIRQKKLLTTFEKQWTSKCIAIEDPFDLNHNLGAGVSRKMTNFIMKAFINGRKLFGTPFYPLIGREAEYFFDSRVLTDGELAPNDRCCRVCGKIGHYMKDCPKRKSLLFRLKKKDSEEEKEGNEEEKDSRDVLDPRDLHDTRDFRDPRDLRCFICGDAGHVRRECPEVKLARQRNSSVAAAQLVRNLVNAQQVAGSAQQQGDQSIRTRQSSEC
The assay is described as follows: TUTase assay (Zcchc11 assay, Lin28a-dependent polyuridylation of pre-let-7). In kind it is biochemical. The conditions noted are these: LIN28A 10 nM, Zcchc11 0.2 nM, 5′-fluorescein pre-let-7 miRNA 2 nM, UTP 5 uM, room temperature, 30 minutes pre-incubation; read-out: Potency Lin28a-dep Z11 IC50. The gist of the method: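 LIN28A (10 nM) in pH 7.3 HEPES/KCl/MgCl2/DTT buffer was mixed with serially diluted compound, then 0.2 nM truncated human Zcchc11 and 2 nM labeled pre-let-7 were added for 30 min at room temperature. UTP (5 uM) and quench probe (4 nM) then started the reaction. Linear early rates gave IC50 values.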
Turning to `CS(=O)(=O)Nc1ccc(-n2cc(C(=O)O)c(=O)c3cc(Cl)c(N4CCC[C@@H]4COc4ncccc4Cl)cc32)cn1` [Example 26, 6-chloro-7-[(2R)-2-{[(3-chloropyridin-2-yl)oxy]methyl}pyrrolidin-1-yl]-1-(6-methanesulfonamidopyridin-3-yl)-4-oxo-1,4-dihydroquinoline-3-carboxylic acid], the IC50 (in general, the concentration that inhibits the measured activity by half) is ≤ 1 µM.

Still in this assay, the particulars now being: Lin28a-dependent Zcchc11 (Z11) TUTase activity; read-out: Potency Lin28a-dep Z11 IC50.
Take `O=C(O)c1cn(-c2cnn(C3CNC3)c2)c2nc(N3CCC[C@@H]3COc3ncccc3F)c(Cl)cc2c1=O` (racemic) [Compound 192, rac-(R)-1-(1-(azetidin-3-yl)-1H-pyrazol-4-yl)-6-chloro-7-(2-(((3-fluoropyridin-2-yl)oxy)methyl)pyrrolidin-1-yl)-4-oxo-1,4-dihydro-1,8-naphthyridine-3-carboxylic acid hydrochloride]: the IC50 was ≤ 1 µM.
The same measure, in the same setting: the same measure for `CO/N=C1\CCN(c2cc3c(cc2Cl)c(=O)c(C(=O)O)cn3-c2ccc(N3CC(N(C)C)C3)nc2)C1COc1nc(OC)ccc1Cl` (stereo not drawn) [Compound 233, (E)-6-chloro-7-(2-(((3-chloro-6-methoxy-pyridin-2-yl)oxy)methyl)-3-(methoxyimino)pyrrolidin-1-yl)-1-(6-(3-(dimethyl-amino)azetidin-1-yl)pyridin-3-yl)-4-oxo-1,4-dihydro-quinoline-3-carboxylic acid]: ≤ 1 µM; for `CN(C)C1CN(c2ccc(-n3cc(C(=O)O)c(=O)c4cc(Cl)c(N5CCC[C@@H]5COc5nnccc5Cl)cc43)cn2)C1` [Compound 173, (R)-6-chloro-7-(2-(((4-chloro-pyridazin-3-yl)oxy)methyl)pyrrolidin-1-yl)-1-(6-(3-(dimethyl-amino)azetidin-1-yl)pyridin-3-yl)-4-oxo-1,4-dihydro-quinoline-3-carboxylic acid]: ≤ 1 µM.
On the same count and under the same terms, the same measure for `O=C(O)c1cn2c3cc(c(Cl)cc3c1=O)N1CCC[C@@H]1COc1nc(ccc1Cl)OCCCNc1ccc-2cn1` [Compound 300, (R)-26,63-dichloro-24-oxo-21,24-dihydro-5,7-dioxa-11-aza-2(1,7)-quinolina-1(5,2),6(2, 6)-dipyridina-3(1,2)-pyrrolidina cyclo-undecaphane-23-carboxylic acid]: ≤ 1 µM.
Same read-out and setting: with `CN(C)C1CN(c2ccc(-n3cc(C(=O)O)c(=O)c4cc(Cl)c(N5CCC[C@]5(C)COc5ncccc5Cl)cc43)cn2)C1` [Compound 277, (R)-6-chloro-7-(2-(((3-chloropyridin-2-yl)oxy)methyl)-2-methyl-pyrrolidin-1-yl)-1-(6-(3-(dimethyl-amino)azetidin-1-yl)pyridin-3-yl)-4-oxo-1,4-dihydro-quinoline-3-carboxylic acid formic acid] the figure was ≤ 1 µM.
Take `O=C(O)c1cn(-c2ccc3c(c2)CNC3)c2cc(N3CCC[C@@H]3COc3ncccc3Cl)c(Cl)cc2c1=O` [Compound 236, 6-chloro-7-[(2R)-2-[[(3-chloropyridin-2-yl)oxy]methyl]pyrrolidin-1-yl]-1-(2,3-dihydro-1H-isoindol-5-yl)-4-oxoquinoline-3-carboxylic acid]: the IC50 is ≤ 1 µM.
On the same count and under the same terms, with `CN(C)C1CN(c2ccc(-n3cc(C(=O)O)c(=O)c4cc(F)c(N5CCC[C@@H]5COc5ncccc5Cl)cc43)cn2)C1` [Compound 222, 7-[(2R)-2-[[(3-chloropyridin-2-yl)oxy]methyl]pyrrolidin-1-yl]-1-[6-[3-(dimethyl-amino)azetidin-1-yl]pyridin-3-yl]-6-fluoro-4-oxoquinoline-3-carboxylic acid] the figure was ≤ 1 µM; with `CN(C)C1CN(c2ccc(-n3cc(C(=O)O)c(=O)c4cc(Cl)c(N5CC6CC5(COc5ncccc5Cl)C6)cc43)cn2)C1` [Compound 221, 6-chloro-7-(1-[[(3-chloropyridin-2-yl)oxy]methyl]-2-azabicyclo [2.1.1]hexan-2-yl)-1-[6-[3-(dimethyl-amino)azetidin-1-yl]pyridin-3-yl]-4-oxoquinoline-3-carboxylic acid], 1 to 10 µM.

Staying with this assay, now noted: Lin28a-dependent Zcchc11 (Z11) TUTase assay; read-out: Potency Lin28a-dep Z11 IC50.
With `Cc1nc2cc(-n3cc(C(=O)O)c(=O)c4cc(Cl)c(N5CCC[C@@H]5COc5ncccc5Cl)cc43)ncc2[nH]1` [Example 616, (R)-6-chloro-7-(2-(((3-chloropyridin-2-yl)oxy)methyl)pyrrolidin-1-yl)-1-(2-methyl-3H-imidazo[4,5-c]pyridin-6-yl)-4-oxo-1,4-dihydroquinoline-3-carboxylic acid], the IC50 is ≤ 1 µM.
Same read-out and setting: with `CN(C)C1CN(c2ccc(-n3cc(C(=O)O)c(=O)c4cc(Cl)c(N5CCC[C@@H]5COc5ncccc5F)cc43)cn2)C1` [Example 526, (R)-6-chloro-1-(6-(3-(dimethylamino)azetidin-1-yl)pyridin-3-yl)-7-(2-(((3-fluoropyridin-2-yl)oxy)methyl)pyrrolidin-1-yl)-4-oxo-1,4-dihydroquinoline-3-carboxylic acid] the figure was ≤ 1 µM; with `CCc1cc2c(=O)c(C(=O)O)cn(-c3ccc(N4CC(N(C)C)C4)nc3)c2cc1N1CCC[C@@H]1COc1ncccc1Cl` [Example 546, (R)-7-(2-(((3-chloropyridin-2-yl)oxy)methyl)pyrrolidin-1-yl)-1-(6-(3-(dimethylamino)azetidin-1-yl)pyridin-3-yl)-6-ethyl-4-oxo-1,4-dihydroquinoline-3-carboxylic acid], ≤ 1 µM.
As for `CN(C)C1CN(c2ccc(-n3cc(C(=O)O)c(=O)c4cc(F)c(N5CCC[C@]5(C)COc5ncccc5Cl)c(F)c43)cn2)C1` [Example 634, (R)-7-(2-(((3-chloropyridin-2-yl)oxy)methyl)-2-methylpyrrolidin-1-yl)-1-(6-(3-(dimethylamino)azetidin-1-yl)pyridin-3-yl)-6,8-difluoro-4-oxo-1,4-dihydroquinoline-3-carboxylic acid], the IC50 was ≤ 1 µM.
The same measure, in the same setting: the same measure for `COc1ccnc(OC[C@H]2C[C@H]3C[C@H]3N2c2cc3c(cc2Cl)c(=O)c(C(=O)O)cn3-c2ccc(N3CC(N(C)C)C3)nc2)c1F` [Example 685, 6-chloro-1-(6-(3-(dimethylamino)azetidin-1-yl)pyridin-3-yl)-7-((1R,3R,5R)-3-(((3-fluoro-4-methoxypyridin-2-yl)oxy)methyl)-2-azabicyclo[3.1.0]hexan-2-yl)-4-oxo-1,4-dihydroquinoline-3-carboxylic acid]: ≤ 1 µM; for `[N-]=[N+]=Nc1ccc(-n2cc(C(=O)O)c(=O)c3cc(Cl)c(N4CCC[C@@H]4COc4ncccc4Cl)cc32)cn1` [Example 631, (R)-1-(6-azidopyridin-3-yl)-6-chloro-7-(2-(((3-chloropyridin-2-yl)oxy)methyl)pyrrolidin-1-yl)-4-oxo-1,4-dihydroquinoline-3-carboxylic acid]: ≤ 1 µM.
On the same count and under the same terms, the same measure for `O=C(O)c1cn(-c2ccc(N3CCOCC3)nc2)c2cc(N3CCC[C@@H]3COc3ncccc3Cl)c(Cl)cc2c1=O` [Example 431, (R)-6-chloro-7-(2-(((3-chloropyridin-2-yl)oxy)methyl)pyrrolidin-1-yl)-1-(6-morpholino-pyridin-3-yl)-4-oxo-1,4-dihydroquinoline-3-carboxylic acid]: ≤ 1 µM; for `COc1ccc(Cl)c(OC[C@H]2C[C@@H]3C[C@@H]3N2c2cc3c(cc2Cl)c(=O)c(C(=O)O)cn3-c2ccc(N3CC(N(C)C)C3)nc2)n1` [Example 661, 6-chloro-7-((1S,3R,5S)-3-(((3-chloro-6-methoxypyridin-2-yl)oxy)methyl)-2-azabicyclo[3.1.0]hexan-2-yl)-1-(6-(3-(dimethylamino)azetidin-1-yl)pyridin-3-yl)-4-oxo-1,4-dihydroquinoline-3-carboxylic acid]: ≤ 1 µM; for `O=C(O)c1cn(C2CCOCC2)c2cc(N3CCC[C@@H]3COc3ccccn3)c(F)cc2c1=O` [Example 450, (R)-6-fluoro-4-oxo-7-(2-((pyridin-2-yloxy)methyl)pyrrolidin-1-yl)-1-(tetrahydro-2H-pyran-4-yl)-1,4-dihydroquinoline-3-carboxylic acid]: 1 to 10 µM.

The values are drawn from patent US12662491B2 (Redona Therapeutics, Inc., priority 2020, dated 2026).
